Read-outs that look alike come from different tables or passages of the source.

For assay [1], the system named is peripheral blood mononuclear cells from HIV-1 seronegative individuals. Conditions: for IFN-γ spots/10^6 PBMC, Average (AV): average of 8 seronegative individuals; for IFN-γ spots/10^6 PBMC, Average (AV) / IFN-γ spots/10^6 PBMC: peptide 5 μM; for IFN-γ spots/10^6 PBMC, AV + 3SD: average plus 3 standard deviations, 8 seronegative individuals. As for the experimental part:
(§1) Step d) is achieved by synthesizing the peptides representing the epitopes of the present invention, followed by ELISPOT assay to detect IFN-γ-producing cells. For the purposes of the present invention, the positivity cutoff value used is ≧30 SFC IFN-γ/10^6 PBMC, calculated based on the levels of responses of HIV-1 seronegative patients
(§2) Synthetic peptide stocks were diluted to 25 mg/mL in dimethylsulphoxide, followed by ELISPOT assays for detection of IFN-γ-producing cells in response to the epitopes using peripheral blood mononuclear cells (PBMC) in 34 HIV-1+ patients of several clinical groups, long-term nonprogressors (LTNP), reconsituted, partial controllers, and progressors. Each epitope was tested in a concentration of 5 μM. The cryopreserved cells were maintained in culture for 16 hours, placed on plates in the presence of the epitopes, incubated for a further 18 hours, washed and ELISPOT plates were developed for the identification of spot-forming cells/Interferon-γ-producing cells (IFN-γ SFC), which were then counted in an automated counter (Zeiss KS ELISpot/Axioplan 2).

The subject of assay [2] is peripheral blood mononuclear cells (PBMC) in 34 HIV-1+ patients. Conditions: 5 μM, positive ≧30 SFC IFN-γ/10^6 PBMC. Here is the method: as §1, §2

As for QRPLVTIKIGGQLKE [pol 1], the “IFN-γ spots/10^6 PBMC, Average (AV)” value in assay [1] is given as 5.1 spots/10^6 PBMC. Besides, in assay [1], the “IFN-γ spots/10^6 PBMC, AV + 3SD” value was 26.9 spots/10^6 PBMC. The “IFN-γ spots/10^6 PBMC” value in assay [1] (seronegative individual C#01) was found to be 0 spots/10^6 PBMC; in assay [1] (seronegative individual C#02) it was 0 spots/10^6 PBMC; in assay [1] (seronegative individual C#03) it was 20 spots/10^6 PBMC; in assay [1] (seronegative individual C#04), 12 spots/10^6 PBMC; in assay [1] (seronegative individual C#05), 3 spots/10^6 PBMC; in assay [1] (seronegative individual C#06), 0 spots/10^6 PBMC. Also, the “IFN-γ spots/10^6 PBMC” value in assay [1] (seronegative individual C#07) stood at 1 spots/10^6 PBMC; in assay [1] (seronegative individual C#08) it was 5 spots/10^6 PBMC. For the same sequence, in assay [2], the “percentage of HIV-1+ patients recognizing the individual peptide” value is recorded as 44%.
For the sequence ALFYKLDVVPID [env 3], in assay [1], the “IFN-γ spots/10^6 PBMC, Average (AV)” value worked out at 1.5 spots/10^6 PBMC. Moreover, the “IFN-γ spots/10^6 PBMC, AV + 3SD” value in assay [1] is 10 spots/10^6 PBMC. Besides, the “IFN-γ spots/10^6 PBMC” value was 5 spots/10^6 PBMC in assay [1] (seronegative individual C#01); 0 spots/10^6 PBMC in assay [1] (seronegative individual C#02); 0 spots/10^6 PBMC in assay [1] (seronegative individual C#03); 7 spots/10^6 PBMC in assay [1] (seronegative individual C#04); 0 spots/10^6 PBMC in assay [1] (seronegative individual C#05); 0 spots/10^6 PBMC in assay [1] (seronegative individual C#06). The “IFN-γ spots/10^6 PBMC” value in assay [1] (seronegative individual C#07) and in assay [1] (seronegative individual C#08) was 0 spots/10^6 PBMC in each case.

For the origin of these results see US8338582B2, “Anti-HIV immunogens and methods for inducing an immune response” (Fundacao de Amparo a Pesquisa do Estado de Sao Paulo, priority 2005, dated 2012).
